The record followed here is ChEMBL document CHEMBL5579843, “Multimechanism biological profiling of tetrahydro-β-carboline analogues as selective HDAC6 inhibitors for the treatment of Alzheimer's disease” (Eur J Med Chem, 2024).

What is called IC50 is the concentration needed to halve the response being measured.

Data set [1] concerns the target Histone deacetylase 1 (Homo sapiens, UniProt Q13547). The data set is described as follows: Inhibition of HDAC1 (unknown origin).
The nature of data set [2]: Antioxidant activity assessed as DPPH scavenging activity incubated for 0.5 hrs by absorbance based assay. In kind it is functional.
Data set [3] in a line: Antioxidant activity assessed as ABTS radical scavenging activity measured after 30 mins by absorbance based analysis. Type of data set: functional.
Data set [4] is described as follows: Neurotoxicity against rat PC-12 cells assessed as reduction in cell viability at 10 uM measured after 24 hrs by MTT assay. Type of data set: toxicity, cell-based. The conditions noted are these: pc-12, 24 h. Background: Tetrazolium dyes change colour on reduction, which living cells bring about.
Data set [5] is described as follows: Neurotoxicity against human SH-SY5Y cells assessed as reduction in cell viability at 10 uM measured after 24 hrs by MTT assay. In kind it is toxicity, cell-based.
The test system of data set [6] is PC-12. Kind of data set: Neuroprotective activity against H2O2-induced oxidative damage in rat PC-12 cells assessed as increase in cell survival pretreated for 4 hrs followed by 800 uM H2O2 stimulation and measured after 24 hrs by MTT assay. In kind it is functional, cell-based. The conditions noted are these: dose 1-10 µM, time 28.0 hrs.
Data set [7] concerns SH-SY5Y. The data set is described as follows: Neuroprotective activity against H2O2-induced oxidative damage in human SH-SY5Y cells assessed as increase in cell survival pretreated for 4 hrs followed by 200 uM H2O2 stimulation and measured after 24 hrs by MTT assay. In kind it is functional, cell-based. The conditions noted are these: dose 1-10 µM, time 28.0 hrs.
The test system of data set [8] is PC-12. Kind of data set: Neuroprotective activity against 6-OHDA-induced oxidative damage in rat PC-12 cells assessed as increase in cell survival at 1 to 10 uM pretreated for 4 hrs followed by 500 uM 6-OHDA stimulation and measured after 24 hrs by MTT assay. The conditions noted are these: dose 1-10 µM, time 28.0 hrs. In kind it is functional, cell-based.
Data set [9] deals with SH-SY5Y. Kind of data set: Neuroprotective activity against 6-OHDA-induced oxidative damage in human SH-SY5Y cells assessed as increase in cell survival at 1 to 10 uM pretreated for 4 hrs followed by 100 uM 6-OHDA stimulation and measured after 24 hrs by MTT assay. Type of data set: functional, cell-based. The conditions noted are these: dose 1-10 µM, time 28.0 hrs.
Data set [10] deals with PC-12. The data set is described as follows: Neuroprotective activity against H2O2-induced oxidative damage in rat PC-12 cells assessed as SOD activity at 10 uM pretreated for 4 hrs followed by H2O2 stimulation and measured after 24 hrs by WST-8 assay. Type of data set: functional. Particulars: time 28 hrs.
The subject of data set [11] is PC-12. The data set is described as follows: Neuroprotective activity against H2O2-induced oxidative damage in rat PC-12 cells assessed as increase in Nrf2 protein expression at 10 uM pretreated for 4 hrs followed by H2O2 stimulation and measured after 24 hrs by Western blot analysis. In kind it is functional, cell-based. The conditions noted are these: time 28.0 hrs. For orientation: In western blotting, separated proteins are transferred to a membrane and probed.

Data set [12] deals with PC-12. The data set is described as follows: Neuroprotective activity against H2O2-induced oxidative damage in rat PC-12 cells assessed as increase in catalase protein expression at 10 uM pretreated for 4 hrs followed by H2O2 stimulation and measured after 24 hrs by Western blot analysis. Type of data set: functional, cell-based. The conditions noted are these: time 28.0 hrs.

Data set [13] is described as follows: Neurotoxicity against rat PC-12 cells assessed as cell survival rate at 10 uM measured after 24 hrs by MTT assay relative to control. Particulars: read-out: Survival. Type of data set: toxicity, cell-based.
A short description of data set [14]: Neurotoxicity against human SH-SY5Y cells assessed as cell survival rate at 10 uM measured after 24 hrs by MTT assay relative to control. Type of data set: toxicity, cell-based. The conditions noted are these: read-out: Survival.
For data set [15], the target named is T1, Protein deacetylase HDAC6 (Homo sapiens, UniProt Q9UBN7).
T1 sequence (Q9UBN7 whole entry): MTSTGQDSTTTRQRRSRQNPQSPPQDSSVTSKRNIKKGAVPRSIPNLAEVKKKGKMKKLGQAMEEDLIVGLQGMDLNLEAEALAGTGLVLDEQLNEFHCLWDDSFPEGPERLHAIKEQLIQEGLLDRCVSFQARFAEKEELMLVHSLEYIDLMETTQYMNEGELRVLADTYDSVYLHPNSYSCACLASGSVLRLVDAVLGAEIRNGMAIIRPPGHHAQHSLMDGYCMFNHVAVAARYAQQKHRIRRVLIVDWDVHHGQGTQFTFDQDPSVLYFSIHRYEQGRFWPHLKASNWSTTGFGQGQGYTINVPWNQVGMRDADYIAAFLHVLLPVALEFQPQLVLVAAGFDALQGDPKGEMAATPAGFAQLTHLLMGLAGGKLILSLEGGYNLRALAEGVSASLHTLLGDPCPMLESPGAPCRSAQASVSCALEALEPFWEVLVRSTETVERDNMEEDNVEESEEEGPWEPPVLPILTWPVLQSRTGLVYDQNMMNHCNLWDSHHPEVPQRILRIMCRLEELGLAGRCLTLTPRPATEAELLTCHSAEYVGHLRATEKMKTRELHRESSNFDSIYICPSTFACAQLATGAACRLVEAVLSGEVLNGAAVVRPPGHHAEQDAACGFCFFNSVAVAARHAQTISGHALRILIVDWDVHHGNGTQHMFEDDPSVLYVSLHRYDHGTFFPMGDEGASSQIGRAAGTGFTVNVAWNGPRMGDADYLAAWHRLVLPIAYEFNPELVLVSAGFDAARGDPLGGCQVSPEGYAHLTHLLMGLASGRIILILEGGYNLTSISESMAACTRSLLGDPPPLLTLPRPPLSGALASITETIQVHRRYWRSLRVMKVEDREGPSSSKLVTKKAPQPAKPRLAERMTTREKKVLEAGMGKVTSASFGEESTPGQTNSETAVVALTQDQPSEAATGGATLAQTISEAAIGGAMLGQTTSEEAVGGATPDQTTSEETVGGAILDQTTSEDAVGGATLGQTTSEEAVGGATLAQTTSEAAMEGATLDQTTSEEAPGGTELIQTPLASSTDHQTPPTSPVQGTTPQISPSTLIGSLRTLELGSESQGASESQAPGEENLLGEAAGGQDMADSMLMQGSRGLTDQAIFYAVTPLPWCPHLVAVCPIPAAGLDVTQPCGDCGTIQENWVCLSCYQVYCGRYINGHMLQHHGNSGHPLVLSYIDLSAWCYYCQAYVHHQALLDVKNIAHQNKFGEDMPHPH
The data set is described as follows: Inhibition of HDAC6 (unknown origin).

The subject of data set [16] is PC-12. The data set is described as follows: Neuroprotective activity against H2O2-induced oxidative damage in rat PC-12 cells assessed as increase in cell survival at 10 uM pretreated for 4 hrs followed by 800 uM H2O2 stimulation and measured after 24 hrs by MTT assay. Type of data set: functional, cell-based. Particulars: time 28.0 hrs.
In data set [17] the test system is SH-SY5Y. The data set is described as follows: Neuroprotective activity against H2O2-induced oxidative damage in human SH-SY5Y cells assessed as increase in cell survival at 10 uM pretreated for 4 hrs followed by 200 uM H2O2 stimulation and measured after 24 hrs by MTT assay. In kind it is functional, cell-based. Particulars: time 28.0 hrs.
The species named for data set [18] is Danio rerio. Kind of data set: Cognitive improvement ability in scopolamine induced zebrafish alzheimer disease model assessed as improvement in motor activity by measuring increase in total distance of swimming at 20 mg/L pretreated with scopolamine for 30 mins followed by compound addition for 3 mins by T-maze test. In kind it is functional, organism-based.

Activity calls are given as the source filed them. No cut-off for these calls is given here.

Histone deacetylase 1, sequence (Q13547 whole entry): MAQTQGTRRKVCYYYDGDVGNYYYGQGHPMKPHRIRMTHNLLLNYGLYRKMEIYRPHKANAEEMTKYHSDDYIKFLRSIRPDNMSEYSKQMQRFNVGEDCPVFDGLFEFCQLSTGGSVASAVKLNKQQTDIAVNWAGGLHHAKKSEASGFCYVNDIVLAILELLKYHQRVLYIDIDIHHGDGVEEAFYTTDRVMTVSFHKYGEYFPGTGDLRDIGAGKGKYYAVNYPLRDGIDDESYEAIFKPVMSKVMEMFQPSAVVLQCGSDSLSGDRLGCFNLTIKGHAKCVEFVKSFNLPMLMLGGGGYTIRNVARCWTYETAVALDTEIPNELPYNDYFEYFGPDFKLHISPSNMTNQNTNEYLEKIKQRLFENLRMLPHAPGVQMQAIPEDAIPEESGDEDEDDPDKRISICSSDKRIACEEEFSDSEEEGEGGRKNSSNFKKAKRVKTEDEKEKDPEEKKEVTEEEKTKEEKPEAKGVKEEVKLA

As to `O=C(NO)c1ccc(CNC(=O)[C@@H]2Cc3c([nH]c4ccccc34)[C@@H](c3ccc(Cl)cc3)N2CC2CC2)cc1`, the IC50 in data set [1] was found to be 0.494 µM.
As to `O=C1O[C@H]([C@@H](O)CO)C(O)=C1O` [ASCORBIC ACID], the 50% inhibitory concentration (IC50) in data set [2] was found to be 23.8 µM; in data set [3], 25.5 µM.
Turning to `O=C(NO)c1ccc(CN2CCc3[nH]c4ccc(F)cc4c3C2)cc1`, the IC50 in data set [2] is 21 µM; in data set [3] it was 9.96 µM.
Turning to `O=C(/C=C/c1ccc(CN2CCc3[nH]c4ccccc4c3C2)cc1)NO`, the Activity result in [4] and in data set [5] was “Toxic” throughout.
With `CN1CCc2c(c3ccccc3n2Cc2ccc(C(=O)NO)cc2)C1` [TUBASTATIN A], the Activity entry in data set [6] was “Dose-Dependent Effect”; in data set [7], “Dose-Dependent Effect”; in data set [10], 13.7 U/mg. Besides, the outcome in [8], in data set [9], in [11] and in data set [12] was Active. The figures for the IC50 in [2] and in data set [3] were 28.2 µM and 12.1 µM, respectively.
In the case of `O=C(NO)c1cccc(CN2CCc3[nH]c4ccccc4c3C2)c1`, the IC50 was 24.3 µM in data set [2] and 16.9 µM in data set [3].
For the compound `O=C(CCCCCCC(=O)N1CCc2c([nH]c3ccccc23)C1)NO`, the Activity result in [4] and in data set [5] was “Toxic” throughout.
For the compound `O=C(CCCCCCC(=O)Nc1ccccc1)NO` [VORINOSTAT], the viability at 24 h, 10 µM in data set [13] and in data set [14] was < 80% throughout.
As to `O=C(NO)c1ccc(CN2CCc3[nH]c4ccccc4c3C2)cc1`, the half-inhibitory concentration (IC50) in data set [2] came out at 26.5 µM; in [3] it was 17.2 µM.
On to `O=C(NO)c1ccc(CN2CCc3c([nH]c4ccccc34)C2)cc1`, for which the IC50 was found to be 16.5 µM in data set [1], 0.0138 µM in data set [15], 35.6 µM in [2] and 11.4 µM in [3].
With `O=C(NO)c1ccc(CC(=O)N2CCc3c([nH]c4ccccc34)C2)cc1`, the outcome in data set [16] and in data set [17] was inactive. In addition, the half-maximal inhibitory concentration (IC50) in data set [2] is 30.3 µM; in [3], 13.8 µM.
Consider `Cc1ccc2[nH]c3c(c2c1)CN(Cc1ccc(C(=O)NO)cc1)CC3`, for which the IC50 in data set [2] was 28.2 µM; in data set [3] it was 9.97 µM.
Regarding `O=C(NO)c1ccc(C2NCCc3c2[nH]c2ccccc32)cc1` (centres undefined), in data set [15], the IC50 was > 1 µM.
The same measure, in the same setting: with `O=C(NO)c1ccc(C2c3[nH]c4ccccc4c3CCN2Cc2ccccc2)cc1` (centres undefined) the figure was > 1 µM.
Regarding `COc1ccc2[nH]c3c(c2c1)CCN(Cc1ccc(/C=C/C(=O)NO)cc1)C3`, the IC50 in [1] was 0.0108 µM; in data set [15], 0.0197 µM. Further, the Activity result in data set [4] and in data set [5] was “Toxic” in each case.
Turning to `COc1ccc2[nH]c3c(c2c1)CCN(Cc1ccc(C(=O)NO)cc1)C3`, the IC50 came out at 23.7 µM in data set [1], 0.0164 µM in [15], 29.1 µM in [2] and 12.6 µM in [3].
Turning to `COc1ccc2c3c1O[C@H]1C[C@@H](O)C=C[C@@]31CCN(C)C2`, the outcome in data set [18] was Active.
For `O=C(CCCCCC(=O)N1CCc2c([nH]c3ccccc23)C1)NO`, the outcome in [16] and in data set [17] was inactive. The IC50 was 28.4 µM in data set [2] and 14.4 µM in [3].
